Experimental data as given in US20200281928A1, “VITAMIN B1 IN HIGH DOSES FOR USE IN THE MEDICAL TREATMENT OF MOTOR SYMPTOMS OF SOME SPORADIC NEURODEGENERATIVE DISEASES, OF GENETIC ORIGIN, AND OF CLUSTER HEADACHE AND OF MIGRAINE HEADACHE” (priority 2017, published 2020).
Read-outs that look alike come from different tables or passages of the source.

Key:
[1] = tested on: Progressive Supranuclear Paralysis; conditions: for Improvement of motor symptoms: UPDRS portion III, two months of therapy; for UPDRS portion III after therapy: five 100 mg/ml vials intramuscularly per week plus low doses of other group b vitamins and magnesium, two months, scale 0-56
Protocol: We treated […] affected by such pathology, two women and two men with five vials intramuscularly per week of vitamin B1. A vial included 100 mg/ml of thiamine. The injection was performed each morning for the first five days of the week. The dose was determined empirically based upon the disease progression rapidity. Furthermore, low doses of all other vitamins of the group b, including folic acid, 150 mg of magnesium citrate and 150 mg of magnesium malate, were associated to the treatment. The patients were evaluated with UPDRS (Unified Parkinson's Disease Rating Scale), scale validated for all Parkinson forms. Herein the scores of third portion (portion III) of this scale will be shown, illustrating the motor problems found by the examiner.
(§1) The diagnoses were made by Italian primary neurological centres based upon anamnestic, clinical, evolutionary, neuroradiological and neurophysiological data.

[2] = tested on: Essential Tremor (also called intention tremor); conditions: for improvement of TETRAS ADL Subscale / improvement of TETRAS Performance subscale / TETRAS ADL Subscale score after treatment / TETRAS Performance subscale score after treatment: two 100-mg/ml vials intramuscularly per week, two months; for TETRAS ADL Subscale score after treatment: scale 0-48; for TETRAS Performance subscale score after treatment: scale 0-64
Protocol: Two patients were studied affected by such pathology, a person and a person. The intention tremor, differently from tremor in Parkinson disease appears and increases with muscular activity. The diagnosis was made by neurologists expert in the motion disorders based upon the clinical, neuroradiological and electrophysiological data.
Before starting the treatment, both patients were evaluated with a validated scale called TETRAS (TRG ESSENTIAL TREMOR RATING ASSESSMENT SCALE). They were re-evaluated with the same scale after two months of treatment with two 100-mg/ml vials of thiamine (vitamin B1) intramuscularly performed on Monday and on Thursday morning with the same scale.
In turn, this scale is constituted by two sub-scales. The first one, Activities of Daily Living Subscale (ADL Subscale) measures the impact the tremor has in the activities of daily life and it has a score ranging from 0 (no impact) to 48 (maximum impact).
The second one, Performance Subscale measures the width and the extension of tremor on the body and it has a score ranging from 0 (no tremor) to 64 (tremor with wide shocks and widespread).

[3] = tested on: Multisystemic Atrophy (MSA) of Cerebellar Type (Type C); conditions: for Improvement of motor symptoms: SARA, two months of therapy; for SARA scale after therapy: five 100 mg/ml vials intramuscularly per week plus low doses of other group b vitamins and magnesium, two months, scale 0-40
Protocol: We treated three patients affected by such pathology with five vials intramuscularly per week of vitamin B1. A vial included 100 mg/ml of thiamine. The injection was performed every morning for the first five days of the week. The dose was determined empirically based upon the disease progression rapidity.
(§2) Moreover, low doses of all other vitamins of group b, including folic acid, 150 mg of magnesium citrate and 150 mg of magnesium malate, were associated to the treatment.
The patients were evaluated with SARA (Scale for Assessment and Rating of Ataxia), scale validated for all disorders of cerebellar type. The score of this scale ranges 0 (absence of symptoms) to 40 (maximum deficit).
as §1

[4] = tested on: Cortico-Basal Degeneration; conditions: for Improvement of motor symptoms: UPDRS portion III, two months of therapy; for UPDRS portion III after therapy: three 100 mg/ml vials intramuscularly per week plus low doses of other group b vitamins and magnesium, two months, scale 0-56
Protocol: We treated two patients affected by such pathology, two men with three vials intramuscularly per week of vitamin B1. One vial included 100 mg/ml of thiamine. The injection was performed in the three odd or even midweek days. The dose was determined empirically based upon the disease progression rapidity.
Furthermore low doses of all other vitamins of the group b, including folic acid, 150 mg of magnesium citrate and 150 mg of magnesium malate, were associated to the treatment.
The patients were evaluated with UPDRS (Unified Parkinson's Disease Rating Scale), scale validated for all Parkinson forms. Herein the scores of third portion (portion III) of this scale will be shown, illustrating the motor problems found by the examiner. […] Both of them were evaluated before starting the treatment and two months after the treatment beginning.
as §1

[5] = tested on: Cluster Headache (also called Horton headache); conditions: person
Protocol: The patient was evaluated with Cluster Headache Quality of Life (CHQ) scale before starting the treatment and every 15 days after starting the treatment which started in December 2016. The score of this scale ranges from 28 (absence of symptoms) to 140 (maximum deficit, maximum negative influence in daily life activities).
The patient started the therapy with 250 mg of thiamine orally, by increasing by 250 mg every three days.

[6] = tested on: Sporadic spinocerebellar ataxia; conditions: for Improvement of motor symptoms: SARA, two months of therapy; for SARA scale after therapy: two vials of thiamine 100 mg/ml twice a week, two months, scale 0-40
Protocol: The diagnosis was made by exclusion, by excluding the genetic forms of spino cerebellar ataxia and the tumour secondary forms.
The patients were evaluated with SARA (Scale for Assessment and Rating of Ataxia), scale validated for all disorders of cerebellar type. The score of this scale ranges from 0 (absence of symptoms) to 40 (maximum deficit).
The diagnoses were made by Italian primary neurological centres based upon the anamnestic, clinical, evolutionary, neuroradiological and neurophysiological and molecular chemistry data.

[7] = tested on: Multisystemic Atrophy (MSA) Type Parkinson (Type P); conditions: for Improvement of motor symptoms: UPDRS portion III, two months of therapy; for UPDRS portion III after therapy: five 100 mg/ml vials intramuscularly per week plus low doses of other group b vitamins and magnesium, two months, scale 0-56
Protocol: We treated four patients affected by such pathology, two women and two men with five vials intramuscularly per week of vitamin B1. One vial included 100 mg/ml of thiamine. The injection was performed each morning for the first five days of the week. The dose was determined empirically based upon the disease progression rapidity.
as §2
The patients were evaluated with UPDRS (Unified Parkinson's Disease Rating Scale), scale validated for all Parkinson forms.
as §1

Cc1ncc(C[n+]2csc(CCO)c2C)c(N)n1 [vitamin B1, thiamine]
Improvement of motor symptoms ([1]; patient N1 (person two)): 20.3%
UPDRS portion III after therapy ([1]; patient N1 (person two), before therapy 31): 25 scores
Improvement of motor symptoms ([1]; patient N2 (person seven)): 19.9%
UPDRS portion III after therapy ([1]; patient N2 (person seven), before therapy 37): 30 scores
Improvement of motor symptoms ([1]; patient N3 (person twelve)): 32.5%
UPDRS portion III after therapy ([1]; patient N3 (person twelve), before therapy 23): 16 scores
Improvement of motor symptoms ([1]; patient N4): 21.8%
UPDRS portion III after therapy ([1]; patient N4, before therapy 28): 22 scores
Improvement of motor symptoms ([1]; patient N5): 26.6%
UPDRS portion III after therapy ([1]; patient N5, before therapy 28): 20 scores
improvement of TETRAS ADL Subscale ([2]; patient N1): 75%
improvement of TETRAS Performance subscale ([2]; patient N1): 74.4%
TETRAS ADL Subscale score after treatment ([2]; patient N1, before treatment 16): 4 scores
TETRAS Performance subscale score after treatment ([2]; patient N1, before treatment 19.5): 5 scores
improvement of TETRAS ADL Subscale ([2]; patient N2): 65.3%
improvement of TETRAS Performance subscale ([2]; patient N2): 68.2%
TETRAS Performance subscale score after treatment ([2]; patient N2, before treatment 22): 7 scores
TETRAS ADL Subscale score after treatment ([2]; patient N2, before treatment 23): 8 scores
alteration in the common laboratory examinations ([2]; two Essential Tremor patients, long-term treatment never suspended): nor any alteration in the common laboratory examinations
side effects ([2]; two Essential Tremor patients, long-term treatment never suspended (intramuscular vials or 4 grams each day orally)): no any side effect
result with the equivalent dose orally ([2]; two Essential Tremor patients, 4 grams each day of vitamin B1 orally for some months instead of the vials): keeping the same results of the vials
Improvement of motor symptoms ([3]; patient N1 (person one)): 14.3%
SARA scale after therapy ([3]; patient N1 (person one), before therapy 7): 6 scores
Improvement of motor symptoms ([3]; patient N2 (person eight)): 37.5%
SARA scale after therapy ([3]; patient N2 (person eight), before therapy 8): 3 scores
Improvement of motor symptoms ([3]; patient N3): 16.0%
SARA scale after therapy ([3]; patient N3, before therapy 25): 21 scores
Improvement of motor symptoms ([4]; patient N1 (person five)): 57.6%
UPDRS portion III after therapy ([4]; patient N1 (person five), before therapy 26): 15 scores
Improvement of motor symptoms ([4]; patient N2 (person six)): 15.3%
UPDRS portion III after therapy ([4]; patient N2 (person six), before therapy 35): 31 scores
time from the beginning until the headache attacks wholly disappeared ([5]; at the dose of 750 mg per day orally, printed as within about 8 days): ≤ 8 days
effect of an attempt of interrupting the treatment ([5]; oral thiamine interrupted): quick re-appearance of headache episodes
outcome of symptoms under continued treatment ([5]; oral thiamine, maintained by continuing the treatment (more than five months)): complete regression of the symptoms
CHQ after treatment ([5]; thiamine orally, 250 mg increased by 250 mg every three days to 750 mg per day, after 15 days, before treatment 82, scale 28 (absence of symptoms) to 140): 28 scores
Improvement of motor symptoms ([6]; patient N1 (person nine)): 33.4%
SARA scale after therapy ([6]; patient N1 (person nine), before therapy 9): 6 scores
Improvement of motor symptoms ([6]; patient N2 (person four)): 50.0%
SARA scale after therapy ([6]; patient N2 (person four), before therapy 6): 3 scores
Improvement of motor symptoms ([7]; patient N1 (person eleven)): 30.8%
UPDRS portion III after therapy ([7]; patient N1 (person eleven), before therapy 26): 18 scores
Improvement of motor symptoms ([7]; patient N2 (person ten)): 11.8%
UPDRS portion III after therapy ([7]; patient N2 (person ten), before therapy 34): 30 scores
Improvement of motor symptoms ([7]; patient N3 (person three)): 55.5%
UPDRS portion III after therapy ([7]; patient N3 (person three), before therapy 9): 5 scores
Improvement of motor symptoms ([7]; patient N4): 47.6%
UPDRS portion III after therapy ([7]; patient N4, before therapy 21): 10 scores
